{"source": "patent US20110028422A1", "about": "(priority 2007, published 2011)", "key": {"NFκB pathway": {"tested_on": "NFκB pathway", "assay": "NFκB pathway regulation", "type": "cell-based", "details": "c-abl inhibition; B-CLL lymphocytes"}, "H2AX": {"tested_on": "H2AX", "assay": "CLB-induced H2AX", "type": "cell-based"}, "CLL lymphocytes": {"tested_on": "CLL lymphocytes", "assay": "MTT cytotoxic assay, CLB sensitization (Example I)", "type": "cell-based, human", "details": "MTT 72 h", "description": "Aliquots containing 1×10^6 cells/ml are sent for T-lymphocyte analysis. The percentage of contaminating T lymphocytes is determined using fluorescence-activated cell sorting analysis with CD3 antibody. […] A-2) Plating Efficiency and Dosing. […] Only dose responses with linear plating efficiencies are analyzed. […] A-3) Cytotoxic Assay. […] The percentage of surviving cells after treatment respect to vehicle treated cells (control) is calculated as (OD treated cells/OD untreated cells)×100. […] A-4) Statistical Analysis Differences between mean values is assessed by two tailed t-test. Correlation and linear regression analysis are performed using the EXCEL Statistical Tool Package."}}, "data": [{"compound": "Cc1cn(-c2cc(NC(=O)c3ccc(C)c(Nc4nccc(-c5cccnc5)n4)c3)cc(C(F)(F)F)c2)cn1", "note": "[Nilotinib, 4-methyl-3-[[4-(3-pyridinyl)-2-pyrimidinyl]amino]-N-[5-(4-methyl-1H-imidazol-1-yl)-3-(trifluoromethyl)phenyl]benzamide]", "values": [{"measurement": "NFκB pathway", "setting": "NFκB pathway", "value": "down regulation"}, {"measurement": "CLB-induced □ H2AX", "setting": "H2AX", "value": "increased"}, {"measurement": "samples in which potency in sensitizing CLL lymphocytes towards chlorambucil was greater than imatinib", "setting": "CLL lymphocytes", "value": "16/19"}]}]}
